Patent publication USRE32098E (Research and Education Institute, Inc., priority 1978, dated 1986)
Structures can show the parent of a compound that is named as a salt. Where two headings read alike, the source gives them in different places.

Columns and labels:
[1] = target: T1, TBG (thyroxine-binding globulin) (Homo sapiens, UniProt P05543); assay: Displacement of radioactive T4 from TBG in a CPBA system; parameters: AMOUNT T4 DISPLACED FROM TBG: unit not given here
T1 construct: from tissue; host or cells: human serum, diluted 1/32
T1 sequence (P05543 21-415): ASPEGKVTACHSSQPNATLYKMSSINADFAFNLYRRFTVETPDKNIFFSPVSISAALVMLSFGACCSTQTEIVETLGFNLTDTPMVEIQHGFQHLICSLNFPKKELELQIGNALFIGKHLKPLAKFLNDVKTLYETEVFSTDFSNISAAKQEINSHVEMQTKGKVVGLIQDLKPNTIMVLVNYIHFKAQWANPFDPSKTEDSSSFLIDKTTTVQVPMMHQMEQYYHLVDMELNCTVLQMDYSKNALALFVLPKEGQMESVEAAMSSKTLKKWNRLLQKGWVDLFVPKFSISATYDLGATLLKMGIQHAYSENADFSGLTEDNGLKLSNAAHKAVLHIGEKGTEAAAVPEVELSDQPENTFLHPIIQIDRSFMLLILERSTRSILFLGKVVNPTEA

TBG [2] = target: T2, TBG (Homo sapiens, UniProt P05543); assay: Displacement of radioactive T3 from TBG; format: binding
T2 construct: from tissue; host or cells: serum
T2 sequence (P05543 21-415): T1 sequence (P05543 21-415)

[3] = tested on: thyroxine binding prealbumin (TBPA); assay: T4 binding by prealbumin
[4] = tested on: proteins such as thyroxine-binding globulin (TBG), prealbumin (TBPA) and albumin; conditions: normal human serum; cited from earlier work
sheep serum TBG = assay: Adequacy of the amount of ANS in T3 RIA: T3-125I bound to T3-binding antibody in presence of sheep serum and ANS versus plain buffer; conditions: 200 ug ANS
TBG [5] = assay: T4 RIA standard curves in barbital buffer and in presence of T4-free serum (FIG. 2); format: binding; conditions: 25 ul T4-free serum
[6] = tested on: T3-binding sites on the rabbit antiserum; assay: Affinity for T3-binding sites on the rabbit antiserum
Solubility at pH of RIA = format: physicochemical
TBG [7] = target: T2, TBG; assay: Maximal T4-binding capacity of TBG in serum (method of Inada and Sterling); conditions: 7 euthyroid subjects with high serum TBG

## CN(C)CCC=C1c2ccccc2COc2ccccc21 [Doxepin HCl]
[1]
  AMOUNT T4 DISPLACED FROM TBG: 8.2
TBG [2]
  AMOUNT T3 DISPLACED FROM TBG: 10.8 ng

## CN(C)CCCN1c2ccccc2Sc2ccc(Cl)cc21 [Chlorpromazine HCl]
[1]
  AMOUNT T4 DISPLACED FROM TBG: 5.6
TBG [2]
  AMOUNT T3 DISPLACED FROM TBG: 6.6 ng

## O=C([O-])c1ccccc1O.[Na+] [Sodium Salicylate]
[1]
  AMOUNT T4 DISPLACED FROM TBG: 6.1
[3]
  effect on T4 binding by prealbumin: affected
TBG [2]
  AMOUNT T3 DISPLACED FROM TBG: 11.0 ng

## O=C1NC(=O)C(c2ccccc2)(c2ccccc2)N1 [Dilantin]
[1]; 100 ug blocking agent
  AMOUNT T4 DISPLACED FROM TBG: 5.7

## N[C@@H](Cc1cc(I)c(Oc2ccc(O)c(I)c2)c(I)c1)C(=O)O [T3, triiodothyronine]
[4]
  present as unbound (dialyzable or free) hormone: 0.3%

## CN1CCN(CCCN2c3ccccc3Sc3ccc(Cl)cc32)CC1 [Prochlorperazine]
[1]
  AMOUNT T4 DISPLACED FROM TBG: 7.2
TBG [2]
  AMOUNT T3 DISPLACED FROM TBG: 7.0 ng

## CC(=O)NCCOC(=O)C(Oc1cccc(C(F)(F)F)c1)c1ccc(Cl)cc1 (centres unmarked) [Halofenate]
[1]; 100 ug blocking agent
  AMOUNT T4 DISPLACED FROM TBG: 8.4
TBG [2]; 10 ug blocking agent
  AMOUNT T3 DISPLACED FROM TBG: 5.2 ng

## CN1C(=O)CN=C(c2ccccc2)c2cc(Cl)ccc21 [Diazepam]
[1]
  AMOUNT T4 DISPLACED FROM TBG: 6.3
TBG [2]
  AMOUNT T3 DISPLACED FROM TBG: 7.0 ng

## C[CH2][Hg][S]c1ccccc1C(=O)[O-].[Na+] [Thimerosal]
[1]
  AMOUNT T4 DISPLACED FROM TBG: 8.4
TBG [2]
  AMOUNT T3 DISPLACED FROM TBG: 8.0 ng

## O=S(=O)(O)c1ccc2cc(N=Nc3ccc(Nc4ccccc4)c4ccccc34)c(S(=O)(=O)O)cc2c1 [ANNDS, 3-(4-anilino-1-napthylazo) 2,7-napthalene disulfonic acid]
[1]; 50 ug blocking agent
  AMOUNT T4 DISPLACED FROM TBG: > 20
TBG [2]; 10 ug blocking agent
  AMOUNT T3 DISPLACED FROM TBG: 10.4 ng

## O=S(=O)(O)c1cccc2cccc(Nc3ccccc3)c12 [ANS, 8-anilino-1-napthalene-sulfonic acid]
Sheep serum TBG
  neutralization of the inhibiting effect of sheep serum TBG: almost complete neutralization
Sheep serum TBG; with sheep serum, no stable T3
  radioactivity bound to antibody relative to that in plain buffer: 95-98%
[1]
  AMOUNT T4 DISPLACED FROM TBG: 18
  T4 displaced from TBG: 18 nanograms (ng)
  concentration of T4 in serum up to which all T4 is displaced: ≤ 72 ug per 100 ml
TBG [5]
  blocking of TBG in serum: TBG in the serum was adequately blocked
[3]
  effect on T4 binding by prealbumin: affected
[6]
  affinity for T3-binding sites on the rabbit antiserum: negligible affinity
TBG [2]
  AMOUNT T3 DISPLACED FROM TBG: 11.2 ng
  T3 displaced from TBG: 11.2 nanograms (ng)
  concentration of T3 in serum up to which all T3 may be displaced: ≤ 88 ug T3 per 100 ml
  displacement of T3 bound to TBG: displaces nearly all T3 bound to TBG
  prevention of binding of radioactive T3 to TBG: prevents completely the binding of radioactive T3 to TBG
Solubility at pH of RIA
  solubility compared with Dilantin and tetrachlorthyronine: better solubility at pH of RIA

## O=S(=O)(O)c1cccc2ccccc12 [αNapthalene Sulfonic Acid]
[1]; 100 ug blocking agent
  AMOUNT T4 DISPLACED FROM TBG: 3.0
TBG [2]; 100 ug blocking agent
  AMOUNT T3 DISPLACED FROM TBG: 7.0 ng

## O=C1NC(=S)NC1(c1ccccc1)c1ccccc1 [5,5 diphenyl-2 thiohydantoin]
[1]; 100 ug blocking agent
  AMOUNT T4 DISPLACED FROM TBG: 6.1
TBG [2]; 10 ug blocking agent
  AMOUNT T3 DISPLACED FROM TBG: 7.6 ng

B1: TBG: thyroxine-binding globulin, serum protein binding thyroid hormones (protein, UniProt P05543 21-415, looked up)
Thyroxine-binding globulin: T1 sequence (P05543 21-415)
TBG [7]
  maximal T4-binding capacity of TBG (mean): 46.9 ug per 100 ml
